Source: patent US20230123334A1, “AMINO LIPID COMPOUND, PREPARATION METHOD THEREFOR, AND APPLICATION THEREOF” (SHENZHEN SHENXIN BIOTECHNOLOGY CO., LTD., priority 2020, published 2023)

Columns and labels:
Format in all cases: cell-based
[1] = system: Hela cells; experiment: Transfection of Hela cell line, DNA vectors; settings: 75 ng plasmid DNA, GFP cells / total cells
How it was run: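 Amino lipid/DOPE liposomes in sodium acetate pH 5.6 were complexed with 75 ng psin-EGFP-IRES-Puro plasmid for 30 min at room temperature, then mixed with 3-5×10^4 Hela cells in DMEM/10% FBS at 37° C. Hoechst stain after 20-24 h, imaging after a further 20-24 h. Efficiency = GFP-positive cells / total nuclei.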

[2] = system: Hela cells; experiment: Transfection of Hela cell line, mRNA vectors; settings: 50 ng EGFP mRNA per well
How it was run: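 Transfection efficiency was scored as GFP-fluorescent cells over Hoechst-stained total nuclei, with Lipofectamine2000 as reference reagent. Each well of HeLa cells, grown in DMEM plus 10% FBS, received 50 ng EGFP mRNA.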

[3] = system: MCF7 cells; experiment: Transfection of MCF7 cell line, DNA vectors; set-up: concentration or dose not given beside the values; settings: plasmid DNA, GFP cells / total cells
Description: (§1) Cell line: MCF7 cells (ATCC HTB-22)
Medium DMEM supplemented with […] fetal bovine serum
(§2) Screening: cell transfection on 96-well plates
Detection (readout): percentage of the number of GFP fluorescent cells relative to the total number of cells (the total number of cells was determined using nucleus dye Hoechst). Lipofectamine2000 was used as the positive control, according to the manufacturer's instructions.
(§3) Method: the experimental method was basically the same with Example 4.

[4] = system: MCF7 cells; experiment: Transfection of MCF7 cell line, mRNA vectors; settings: 50 ng EGFP mRNA per well
Description: as §1
Medium: DMEM supplemented with 10 fetal bovine serum (Invitrogen)
as §2
Detection (readout): percentage of the number of GFP fluorescent cells relative to the total number of cells (the total number of cells was determined using nucleus dye Hoechst). Lipofectamine2000 (Invitrogen) was used as the positive control.
Method: the experimental method was basically the same with Example 4, and the mass of EGFP mRNA (TriLink) for transfection was 50 ng per well.

[5] = system: embryonic stem cells (hESC2); experiment: Screening as DNA vectors in embryonic stem cells, flow cytometry; settings: 75 ng plasmid DNA, 48 hours after transfection, flow cytometer
Description: (§4) Cell line: embryonic stem cells (hESC2, cultured according to reported methods: Stem Cells, 2005, 23, 544-549)
(§5) Medium: mTeSR1 (STEMCELL)
(§6) Mode of screening: cell transfection on 96-well plates
(§7) Detection (readout): percentage of the number of GFP fluorescent cells relative to the total number of cells. Lipofectamine Stem was used as the positive control.
Method: an 8-channel pipette was used for sample addition. The contents shown were for a single well of a 96-well flat plate.
1. Stem cells were cultured to 3-5×10^4 cells per well in a 96-well plate treated with matrigel.
2. The compound (0.01 mmol) prepared in Example 1 was dissolved in 1 mL of anhydrous ethanol. After ultrasonically dissolved, 10 μL of the resultant amino lipid solution in ethanol was taken and mixed with 5 μL of DOPE solution in ethanol ([…]). The obtained mixture was then added with 35 μL of 0.2 M sodium acetate buffer (pH 5.6), and vortexed at a constant rotating speed for 30 s. Then, 4 μL was taken from the obtained product and added to 46 μL of 0.02 M sodium acetate buffer (pH 5.6), and vortexed at a constant rotating speed for 30 s to form a liposome solution. 5 μL of this liposome solution was mixed with 75 ng of plasmid DNA (pSin-EGFP-IRES-Puro) dissolved in 5 μL of 0.02 M sodium acetate buffer, and allowed to stay at room temperature for 30 min to form a lipid/DNA transfection complex.
3. 10 μL of the lipid/DNA transfection complex was incubated at room temperature for 30 min, followed by addition of 90 μL mTeSR1 medium was added and mixing with a pipette. 100 μL of the mixture was added to separate wells of a 96-well culture plate and placed in an incubator containing 5% CO2 at 37° C.
4. 48 hours after transfection, the cells were digested with 0.05% Trypsin-EDTA. The cells were resuspended in a PBS buffer and filtered. The cell suspension was placed in a flow cytometer and the number of GFP-expressing cells in no less than 2000 cells was measured so as to obtain the absolute efficiency of cell transfection. The relative efficiency of cell transfection was obtained by comparing the cell transfection efficiency with the positive control Lipofectamine Stem.

[6] = system: embryonic stem cells (hESC2); experiment: Screening as mRNA vectors in embryonic stem cells; settings: 50 ng EGFP mRNA per well
Description: as §4, §5
Mode of screening: cell transfection on 96-well plate
as §7
Method: the experimental method was basically the same with Example 10, and the mass of EGFP mRNA for transfection was 50 ng per well.

[7] = system: cardiomyocytes; experiment: Screening as DNA vectors in cardiomyocytes; set-up: concentration or dose not given beside the values; settings: method as Example 4
Description: Cell line: cardiomyocytes (obtained from induced differentiation of hESC according to reported methods: J. Mol. Cell. Cardiol. 2011, 51, 288-298)
(§8) Medium: DMEM supplemented with 10% fetal bovine serum (Invitrogen)
as §6
(§9) Detection (readout): percentage of the number of GFP fluorescent cells relative to the total number of cells (the total number of cells was determined using nucleus dye Hoechst). Lipofectamine Stem (Invitrogen) was used as the positive control, according to the manufacturer's instructions.
as §3

[8] = system: cardiomyocytes; experiment: Screening as mRNA vectors in cardiomyocytes; settings: 50 ng EGFP mRNA per well
Description: Cell line: cardiomyocytes (obtained from induced differentiation of hESC according to reported methods: J Mol. Cell. Cardiol. 2011, 51, 288-298)
as §8, §6, §9
Method: the experimental method was basically the same with Example 4, and the mass of EGFP mRNA for transfection was 50 ng per well.

Row | SMILES | Absolute DNA transfection efficiency in Hela cells [1] [%] | Absolute mRNA transfection efficiency in Hela cells [2] [%] | Absolute DNA transfection efficiency in MCF7 cells [3] [%] | Absolute mRNA transfection efficiency in MCF7 cells [4] [%] | Absolute DNA transfection efficiency in embryonic stem cells [5] [%] | Absolute mRNA transfection efficiency in embryonic stem cells [6] [%] | Absolute DNA transfection efficiency in cardiomyocytes [7] [%] | Absolute mRNA transfection efficiency in cardiomyocytes [8] [%]
1 | CCCCCCCCCCCNc1nc(NCCN2CCCC2)nc(SCCCCCCCC)n1 [Compound S8N11D3] | 26.2 | 26.2 | 3.6 | 8.0 | 0.2 | 2.4 | 0.5 | 6.2
2 | CCCCCCCCCCCNc1nc(NCCN2CCN(C)CC2)nc(SCCCCCCCC)n1 [Compound S8N11D5] | 26.5 | 26.5 | 16.7 | 9.1 | 1.1 | 1.6 | 3.0 | 3.7
3 | CCCCCCCCCCCNc1nc(NCCCN(C)C)nc(SCCCCCCCC)n1 [Compound S8N11D6] | 50.1 | 50.2 | 18.0 | 6.7 | 0.2 | 1.9 | 1.4 | 5.3
4 | CCCCCCCCCCCNc1nc(NCCCN2CCOCC2)nc(SCCCCCCCC)n1 [Compound S8N11D8] | 6.8 | 6.8 | 4.4 | 0.1 | 0.7 | 1.0 | 2.1 | 1.9
5 | CCCCCCCCCCCNc1nc(NCCCN2CCN(C)CC2)nc(SCCCCCCCC)n1 [Compound S8N11D9] | 31.9 | 31.9 | 45.4 | 6.6 | 0.5 | 1.0 | 0.6 | 31.6
6 | CCCCCCCCCCCNc1nc(NCC2CCN(C)CC2)nc(SCCCCCCCC)n1 [Compound S8N11D10] | 23.4 | 23.4 | 45.3 | 4.4 | 0.7 | 0.7 | 6.6 | 16.8
7 | CCCCCCCCCCCSc1nc(NCCN2CCCC2)nc(SCCCCCCCC)n1 [Compound S8S11D3] | 3.3 | 3.3 | 2.7 | 20.4 | 0.7 | 21.4 | 1.9 | 21.0
8 | CCCCCCCCCCCSc1nc(NCCN2CCN(C)CC2)nc(SCCCCCCCC)n1 [Compound S8S11D5] | 5.9 | 5.9 | 48.3 | 30.6 | 2.4 | 21.1 | 0.5 | 2.7
9 | CCCCCCCCCCCSc1nc(NCCCN(C)C)nc(SCCCCCCCC)n1 [Compound S8S11D6] | 3.9 | 3.9 | 56.8 | 46.3 | 1.6 | 10.3 | 1.0 | 18.4
10 | CCCCCCCCCCCSc1nc(NCCCN2CCOCC2)nc(SCCCCCCCC)n1 [Compound S8S11D8] | 7.6 | 7.6 | 12.3 | 7.0 | 1.0 | 1.6 | 2.2 | 0.7
11 | CCCCCCCCCCCSc1nc(NCCCN2CCN(C)CC2)nc(SCCCCCCCC)n1 [Compound S8S11D9] | 6.8 | 6.8 | 59.8 | 34.9 | 1.0 | 18.1 | 0.8 | 25.5
12 | CCCCCCCCCCCSc1nc(NCC2CCN(C)CC2)nc(SCCCCCCCC)n1 [Compound S8S11D10] | 21.8 | 21.8 | 37.2 | 40.4 | 0.7 | 37.4 | 1.4 | 20.8
13 | CCCCCCCCCCCCSc1nc(NCCN2CCCC2)nc(SCCCCCCCC)n1 [Compound S8S12D3] | 5.5 | 5.5 | 1.9 | 6.7 | 1.5 | 17.9 | 0.3 | 36.7
